In US8932597B2 (priority 2008, dated 2015):

What was measured:
[1] = test system: HuM2e antibody 23K12; type: binding, human
[2] = test system: anti-M2 human monoclonal antibody Z3G1; type: binding

Row | Substance | Signal (peptides that bind to 23K21 and 8I10) [1] | Signal (peptides that show specific binding to Z3G1) [2] | Signal (peptides that bind to Z3G1) [2]
1 | 473 (SLSTEVETPIRNEWGCRCNDSSD; epitope peptide) [compound 473] | 1217 | 2052 | 
2 | 661 (SLLTEVETPIRQEWGCRCNDSSD; epitope peptide) [compound 661] | 748 | 2367 | 
3 | 674 (SLLTEVETPIRNEWGCRCTDSSD; epitope peptide) [compound 674] | 733 |  | 2253
4 | 452 (SLLTEVGSLLTEC; epitope peptide) [compound 452] | 1326 | 1862 | 
5 | 321 (ALLTEVETPIRNEWGCRCNDSSD; epitope peptide) [compound 321] | 1794 | 2225 | 
6 | 609 (SLLTEVETHIRNEWGCRCNDSSD; epitope peptide) [compound 609] | 816 | 2288 | 
7 | 543 (MSLLTCVGMSLLTEV; epitope peptide) [compound 543] | 925 |  | 2627
8 | 287 (MSLLTEVGMSLLTEV; epitope peptide) [compound 287] | 2267 |  | 2878
9 | 552 (SLLTEVETPIRNEWGCYCNDSSD; epitope peptide) [compound 552] | 913 | 2397 | 
10 | 547 (SLLTETETPIRNEWGCRCNDSSD; epitope peptide) [compound 547] | 919 | 1594 | 
11 | 582 (SLLTEVETPIRAEWGCRCNDSSD; epitope peptide) [compound 582] | 856 | 2306 | 
12 | 342 (SLLTEVETPIRNEWGCRCNSSSD; epitope peptide) [compound 342] | 1637 |  | 2440
13 | 496 (SCLTEVGSLLCEV; epitope peptide) [compound 496] | 1095 | 1896 | 
14 | 712 (SLLTEVETPIRNDWGCRCNDSSD; epitope peptide) [compound 712] | 706 | 2324 | 
15 | 683 (SLLTEVETPIRNEWGCACNDSSD; epitope peptide) [compound 683] | 729 | 2301 | 
16 | 545 (SLLTEVSTPIRNEWGCRCNDSSD; epitope peptide) [compound 545] | 923 | 2288 | 
17 | 336 (SLLCEVGSLLTEV; epitope peptide) [compound 336] | 1674 | 2475 | 
18 | 549 (SLLTEVETFIRNEWGCRCNDSSD; epitope peptide) [compound 549] | 916 | 2301 | 
19 | 522 (SLLTMVETPIRNEWGCRCNDSSD; epitope peptide) [compound 522] | 1011 | 1244 | 

Row | Substance | Signal (peptides that bind to 23K21 and 8I10) [1] | Signal (peptides that show specific binding to Z3G1) [2] | Signal (peptides that bind to Z3G1) [2]
20 | 659 (SLLTEVETPIRNEWGARCNDSSD; epitope peptide) [compound 659] | 750 | 2396 | 
21 | 223 (CVETPIRNEWGSRSNDCSLLTEVETC; epitope peptide) [compound 223] | 905 | 2233 | 
22 | 644 (SLLTEVETPIRNEWGVRCNDSSD; epitope peptide) [compound 644] | 764 | 2444 | 
23 | 464 (SLLTEVGSLCTEV; epitope peptide) [compound 464] | 1256 | 2219 | 
24 | 400 (SLLTEVETPIRNEWGCRCNVSSD; epitope peptide) [compound 400] | 865 |  | 2476
25 | 652 (SLLTEVEEPIRNEWGCRCNDSSD; epitope peptide) [compound 652] | 757 | 2362 | 
26 | 564 (SLLTEVELPIRNEWGCRCNDSSD; epitope peptide) [compound 564] | 886 | 2407 | 
27 | 711 (CSLLTEVGSLCTEV; epitope peptide) [compound 711] | 707 | 2409 | 
28 | 500 (SCLTEVGSLLTEV; epitope peptide) [compound 500] | 1066 | 1610 | 
29 | 300 (SLLTEVETKIRNEWGCRCNDSSD; epitope peptide) [compound 300] | 1960 | 2485 | 
30 | 640 (SLLTEVETPIRNKWGCRCNDSSD; epitope peptide) [compound 640] | 765 | 2402 | 
31 | 292 (CSLLTEVGSLLTEC; epitope peptide) [compound 292] | 2094 | 2213 | 
32 | 354 (SLLTEVGCSLLTEV; epitope peptide) [compound 354] | 1555 | 2511 | 
33 | 432 (SLLTEVETPIRNEWGCRCNDSVD; epitope peptide) [compound 432] | 728 |  | 2232
34 | 600 (SLLTEVETPIRNEWGLRCNDSSD; epitope peptide) [compound 600] | 831 | 2389 | 
35 | 337 (SLLTEVETPIRNEWGCRCNYSSD; epitope peptide) [compound 337] | 1666 |  | 2475
36 | 544 (SLLTEVETPIRNEWGCRCRDSSD; epitope peptide) [compound 544] | 924 |  | 2447
37 | 577 (SLLTEVETPIRNIWGCRCNDSSD; epitope peptide) [compound 577] | 862 | 2490 | 
38 | 575 (SLLTEVRTPIRNEWGCRCNDSSD; epitope peptide) [compound 575] | 866 | 1024 | 

Row | Substance | Signal (peptides that bind to 23K21 and 8I10) [1] | Signal (peptides that show specific binding to Z3G1) [2] | Signal (peptides that bind to Z3G1) [2]
39 | 607 (SLLTEVESPIRNEWGCRCNDSSD; epitope peptide) [compound 607] | 817 | 2156 | 
40 | 571 (SLLTEVETPIRNLWGCRCNDSSD; epitope peptide) [compound 571] | 870 | 2415 | 
41 | 387 (SLLTEVETPIRTEWGCRCNDSSD; epitope peptide) [compound 387] | 1365 | 2360 | 
42 | 649 (SLLTEVETTIRNEWGCRCNDSSD; epitope peptide) [compound 649] | 760 | 2295 | 
43 | 359 (MSLLTEVGMSCLTEV; epitope peptide) [compound 359] | 1535 |  | 2793
44 | 384 (SLLTEVETPIRNEYGCRCNDSSD; epitope peptide) [compound 384] | 1377 | 2426 | 
45 | 370 (SLLTEVETPIRNEWGERCNDSSD; epitope peptide) [compound 370] | 1474 | 2286 | 
46 | 284 (ASLLTEVGSLLTCV; epitope peptide) [compound 284] | 2443 | 2358 | 
47 | 537 (SLLTEVEPPIRNEWGCRCNDSSD; epitope peptide) [compound 537] | 953 | 2522 | 
48 | 533 (CSLLTEVGSCLCEC; epitope peptide) [compound 533] | 963 | 2625 | 
49 | 608 (SLLTEIETPIRNEWGCRCNDSSD; epitope peptide) [compound 608] | 816 | 2016 | 
50 | 519 (SLLTEVETPIRNEWGCRSNDSSD; epitope peptide) [compound 519] | 1016 | 2344 | 
51 | 612 (SLLTEVETPIRNEWGCRCIDSSD; epitope peptide) [compound 612] | 812 |  | 2450
52 | 250 (CSLLTEVETCTEVETPIRNEWGSRSC; epitope peptide) [compound 250] | 786 | 2474 | 
53 | 581 (SLLTEVETYIRNEWGCRCNDSSD; epitope peptide) [compound 581] | 857 | 2290 | 
54 | 681 (SLLTEVETPIRNEWACRCNDSSD; epitope peptide) [compound 681] | 729 | 2431 | 
55 | 161 (CPIRNEWGSRSNDSSDCSLLTEVETC; epitope peptide) [compound 161] | 1206 | 2759 | 
56 | 493 (SLLTEVETMIRNEWGCRCNDSSD; epitope peptide) [compound 493] | 1104 | 2320 | 
57 | 316 (MSLLTEVGCSLLTEV; epitope peptide) [compound 316] | 1809 |  | 2650
